# Measurements reported in patent publication US12201610B2, “Compositions comprising aticaprant” (Janssen Pharmaceuticals, Inc., priority 2022, dated 2025).
# Where two headings read alike, the source gives them in different places.
# Tests used:
# [1] = Phase 1 PK Part 1: relative bioavailability, dose proportionality, food effect of unmilled API tablet; format: in vivo, human; details: for Tmax: median
# Description: This is a Phase 1, open-label, single dose, multicenter, 4-part study in healthy adult participants.
# Potential participants will be screened from Day −28 to Day −2 to determine participants' eligibility for study participation. For Part 1, qualified participants will be admitted on Day −1 of each treatment period and will remain in-house for the total duration of the treatment (Day −1 until Day 5, with single-dose treatment on Day 1 and 96 hours of PK), whereas for Part 2, PK sampling will be done up to 120 hours (Day 6). Each dosed participant will have a safety follow-up on Day 10 to Day 14 after last dose of the study intervention.
# The Part 1 of the study involves determination of relative bioavailability for tablet (Formulation Concept 1, i.e., unmilled aticaprant formulation, see Table 10) and capsule formulations (see Example 6, study design, for description of capsule formulation) and dose proportionality and food effect for tablet formulation (Formulation Concept 1) in healthy adult participants (FIG. 25). Part 1 will consist of Subpart 1A and Subpart 1B consisting of a total of 4 periods. […] Participants will be assigned to 1 of 6 treatment sequences (Table 51) and will be administered the 3 treatments in a 3-way crossover. The same 24 participants who complete Subpart 1A will be enrolled in Subpart 1B. Subpart 1B consists of a fourth period to evaluate the food effect of a single dose of 10 mg aticaprant administered as 1×10 mg oral tablet (Formulation Concept 1) under fed conditions (Treatment D; Table 50 and Table 52). A preliminary PK analysis will be conducted at the end of the food effect part (Subpart 1B) for all the periods from Part 1 and will include the food effect data.
# Secondary Objectives: • To assess the safety and tolerability of oral doses of aticaprant in healthy adult participants. Part 2
# For each individual participant, there will be a washout period of at least 7 days for Part 1 and at least 8 days for Part 2 between subsequent intakes of the study intervention. Day 1 of a treatment period (day of study intervention intake) is the first day of the washout period (also in between the study parts, if applicable).
# Participants will be fasting in Part 1A and Part 2A. Participants will have been fed in Parts 1B and 2B. For a fasted condition, participants will fast (nothing to cat or drink except noncarbonated water) overnight for at least 10 hours before and until 4 hours after study intervention administration during each fasted treatment period. Approximately, 4 hours post-dose and after the 4-hour PK sampling, a standard lunch will be served at the study-site. Intake of water is allowed until 2 hours before the intake of the study intervention. Thereafter, water intake is only allowed for study intervention intake and for breakfast, if applicable. Drinking of water is allowed ad libitum from approximately 2 hours after dosing. For a fed condition, participants will consume, after an overnight fast (at least 10 hours), a standardized high-fat breakfast within a 20-minute period. […] Study intervention will be administered approximately 30 minutes after the start of the breakfast.
# In Parts 1 and 2, plasma concentrations will be determined for aticaprant. Blood samples for determination of plasma concentrations of aticaprant will be collected predose and at the postdose time points starting on Day 1 as indicated in the Tables 57-58.
# The following plasma PK parameters of aticaprant will be determined. A noncompartmental model with extravascular input will be used for the pharmacokinetic analysis.
# Based on the individual concentration-time data, using the actual sampling times, the following PK parameters will be derived for aticaprant: […]
# subjects with MDD = assay: HAM-A6 total score (Example 6); format: in vivo, human; details: 10 mg; Treatment Week 6; 59 subjects analyzed
# From the text: v. To investigate the effect of aticaprant on symptoms of anxiety using the HAM-A and on core symptoms of anxiety using the HAM-A6 subscale.
# • (i) Depression: Montgomery-Åsberg Depression Rating Scale (MADRS), Clinical Global Impression-Severity (CGI-S), Symptoms of Major Depressive Disorder Scale (SMDDS), and Self-assessment of treatment experience (SATE) • (ii) Anhedonia: Snaith-Hamilton Pleasure Scale (SHAPS) • (iii) Anxiety: Structured Interview Guide for the Hamilton Anxiety scale (SIGH-A) and HAM-A6 • (iv) Effects on Cognition: The Cognitive and Physical Functioning Questionnaire (CPFQ) • (v) Safety assessments
# [2] = Dose proportionality: C (Test, 5 mg tablet normalized to 10 mg) vs B (Reference, 10 mg tablet), fasting
# [3] = Food effect: Treatment D (high-fat breakfast, Test)/Treatment B (fasting, Reference), 10 mg Formulation Concept 1
# [4] = Relative BA: Treatment B (10 mg tablet, Test)/Treatment A (2 × 5 mg capsule, Reference), fasting
# [5] = Treatment A: 2 × 5 mg oral capsule, fasting, mean
# [6] = Treatment B: 1 × 10 mg Formulation Concept 1 (unmilled API tablet), fasting, mean
# [7] = Treatment C (1 × 5 mg Formulation Concept 1, fasting), 5 mg dose normalized to 10 mg, mean (SD)
# [8] = Treatment C: 1 × 5 mg Formulation Concept 1 (unmilled API tablet), fasting, mean
# [9] = Treatment D: 1 × 10 mg Formulation Concept 1 (unmilled API tablet), after high-fat breakfast, mean
# [10] = human, plasma, oral, 5 mg, Treatment C: 1 × 5 mg Formulation Concept 1 (unmilled API tablet), fasting, mean
# [11] = human, plasma, oral, 10 mg, Treatment B: 1 × 10 mg Formulation Concept 1 (unmilled API tablet), fasting, mean
# [12] = human, plasma, oral, 10 mg, Treatment D: 1 × 10 mg Formulation Concept 1 (unmilled API tablet), after high-fat breakfast, mean
# [13] = human, plasma, po, 10 mg, Treatment A: 2 × 5 mg oral capsule, fasting, mean
smiles,measurement,setting,value
"Cc1cc(C)cc(C2CCCN2Cc2ccc(Oc3ccc(C(N)=O)cc3F)cc2)c1 (centres unmarked) [aticaprant, 3-fluoro-4-4-2-(3,5-dimethylphenyl)pyrrolidin-1-yl-methylphenoxybenzamide]",Geometric Mean Cmax,"[1]; Dose proportionality, completers, Treatment B (Reference): 1 × 10 mg Formulation Concept 1, fasting",32.8 ng/mL
same,"Ratio of Geometric Means, AUClast",[1]; [2],103.20%
same,"Ratio of Geometric Means, AUC∞",[1]; [2],103.93%
same,"Ratio of Geometric Means, Cmax",[1]; [2],102.12%
same,Geometric Mean Cmax,"[1]; Food effect, completers, Treatment B (Reference): 1 × 10 mg Formulation Concept 1, fasting",32.6 ng/mL
same,"Ratio of Geometric Means, AUClast",[1]; [3],144.01%
same,"Ratio of Geometric Means, AUC∞",[1]; [3],143.84%
same,"Ratio of Geometric Means, Cmax",[1]; [3],112.49%
same,Geometric Mean Cmax,"[1]; Relative BA, completers, Treatment B (Test): 1 × 10 mg Formulation Concept 1, fasting",32.8 ng/mL
same,"Ratio of Geometric Means, AUClast",[1]; [4],93.31%
same,"Ratio of Geometric Means, AUC∞",[1]; [4],94.14%
same,"Ratio of Geometric Means, Cmax",[1]; [4],108.64%
same,CL/F,[1]; [5],34.5 L/h
same,Λz,[1]; [5],0.030 h⁻¹
same,CL/F,[1]; [6],36.2 L/h
same,Cmax,[1]; [6],34.1 ng/mL
same,Λz,[1]; [6],0.029 h⁻¹
same,"AUClast, C Dose Normalized",[1]; [7],286 (79.7) h * ng/mL
same,"AUC∞, C Dose Normalized",[1]; [7],309 (86.4) h * ng/mL
same,"Cmax, C Dose Normalized",[1]; [7],33.9 (8.97) ng/mL
same,CL/F,[1]; [8],35.8 L/h
same,Λz,[1]; [8],0.035 h⁻¹
same,CL/F,[1]; [9],25.0 L/h
same,Λz,[1]; [9],0.031 h⁻¹
same,AUC(0-t),"[1]; human, plasma, oral, 5 mg, Dose proportionality, completers, Treatment C (Test): 1 × 5 mg Formulation Concept 1, fasting, 5 mg dose normalized to 10 mg, read-out: Geometric Mean AUClast",280 ng·h/mL
same,AUC(0-inf),"[1]; human, plasma, oral, 5 mg, Dose proportionality, completers, Treatment C (Test): 1 × 5 mg Formulation Concept 1, fasting, 5 mg dose normalized to 10 mg, read-out: Geometric Mean AUC∞",299 ng·h/mL
same,Vd/F,[1]; [10],1150 L
same,half-life,[1]; [10],24.7 h
same,AUC(0-t),"[1]; human, plasma, oral, 5 mg, Treatment C: 1 × 5 mg Formulation Concept 1 (unmilled API tablet), fasting, mean, read-out: AUClast",143 ng·h/mL
same,AUC(0-inf),"[1]; human, plasma, oral, 5 mg, Treatment C: 1 × 5 mg Formulation Concept 1 (unmilled API tablet), fasting, mean, read-out: AUC∞",155 ng·h/mL
same,Cmax,"[1]; human, plasma, oral, 5 mg, Treatment C: 1 × 5 mg Formulation Concept 1 (unmilled API tablet), fasting, mean, read-out: Cmax",17 ng/mL
same,Tmax,"[1]; human, plasma, oral, 5 mg, Treatment C: 1 × 5 mg Formulation Concept 1 (unmilled API tablet), fasting",1.5 h
same,AUC(0-t),"[1]; human, plasma, oral, 10 mg, Dose proportionality, completers, Treatment B (Reference): 1 × 10 mg Formulation Concept 1, fasting, read-out: Geometric Mean AUClast",271 ng·h/mL
same,AUC(0-inf),"[1]; human, plasma, oral, 10 mg, Dose proportionality, completers, Treatment B (Reference): 1 × 10 mg Formulation Concept 1, fasting, read-out: Geometric Mean AUC∞",287 ng·h/mL
same,AUC(0-t),"[1]; human, plasma, oral, 10 mg, Food effect, completers, Treatment B (Reference): 1 × 10 mg Formulation Concept 1, fasting, read-out: Geometric Mean AUClast",270 ng·h/mL
same,AUC(0-inf),"[1]; human, plasma, oral, 10 mg, Food effect, completers, Treatment B (Reference): 1 × 10 mg Formulation Concept 1, fasting, read-out: Geometric Mean AUC∞",287 ng·h/mL
same,AUC(0-t),"[1]; human, plasma, oral, 10 mg, Food effect, completers, Treatment D (Test): 1 × 10 mg Formulation Concept 1, after high-fat breakfast, read-out: Geometric Mean AUClast",388 ng·h/mL
same,AUC(0-inf),"[1]; human, plasma, oral, 10 mg, Food effect, completers, Treatment D (Test): 1 × 10 mg Formulation Concept 1, after high-fat breakfast, read-out: Geometric Mean AUC∞",413 ng·h/mL
same,Cmax,"[1]; human, plasma, oral, 10 mg, Food effect, completers, Treatment D (Test): 1 × 10 mg Formulation Concept 1, after high-fat breakfast, read-out: Geometric Mean Cmax",36.6 ng/mL
same,AUC(0-t),"[1]; human, plasma, oral, 10 mg, Relative BA, completers, Treatment B (Test): 1 × 10 mg Formulation Concept 1, fasting, read-out: Geometric Mean AUClast",271 ng·h/mL
same,AUC(0-inf),"[1]; human, plasma, oral, 10 mg, Relative BA, completers, Treatment B (Test): 1 × 10 mg Formulation Concept 1, fasting, read-out: Geometric Mean AUC∞",287 ng·h/mL
same,Vd/F,[1]; [11],1340 L
same,half-life,[1]; [11],26.6 h
same,AUC(0-t),"[1]; human, plasma, oral, 10 mg, Treatment B: 1 × 10 mg Formulation Concept 1 (unmilled API tablet), fasting, mean, read-out: AUClast",283 ng·h/mL
same,AUC(0-inf),"[1]; human, plasma, oral, 10 mg, Treatment B: 1 × 10 mg Formulation Concept 1 (unmilled API tablet), fasting, mean, read-out: AUC∞",301 ng·h/mL
same,Tmax,"[1]; human, plasma, oral, 10 mg, Treatment B: 1 × 10 mg Formulation Concept 1 (unmilled API tablet), fasting",1.5 h
same,Vd/F,[1]; [12],835 L
same,half-life,[1]; [12],24.5 h
same,AUC(0-t),"[1]; human, plasma, oral, 10 mg, Treatment D: 1 × 10 mg Formulation Concept 1 (unmilled API tablet), after high-fat breakfast, mean, read-out: AUClast",398 ng·h/mL
same,AUC(0-inf),"[1]; human, plasma, oral, 10 mg, Treatment D: 1 × 10 mg Formulation Concept 1 (unmilled API tablet), after high-fat breakfast, mean, read-out: AUC∞",425 ng·h/mL
same,Cmax,"[1]; human, plasma, oral, 10 mg, Treatment D: 1 × 10 mg Formulation Concept 1 (unmilled API tablet), after high-fat breakfast, mean, read-out: Cmax",37.7 ng/mL
same,Tmax,"[1]; human, plasma, oral, 10 mg, Treatment D: 1 × 10 mg Formulation Concept 1 (unmilled API tablet), after high-fat breakfast",2.75 h
same,AUC(0-t),"[1]; human, plasma, po, 10 mg, Relative BA, completers, Treatment A (Reference): 2 × 5 mg oral capsule, fasting, read-out: Geometric Mean AUClast",291 ng·h/mL
same,AUC(0-inf),"[1]; human, plasma, po, 10 mg, Relative BA, completers, Treatment A (Reference): 2 × 5 mg oral capsule, fasting, read-out: Geometric Mean AUC∞",305 ng·h/mL
same,Cmax,"[1]; human, plasma, po, 10 mg, Relative BA, completers, Treatment A (Reference): 2 × 5 mg oral capsule, fasting, read-out: Geometric Mean Cmax",30.2 ng/mL
same,Vd/F,[1]; [13],1250 L
same,half-life,[1]; [13],26.3 h
same,AUC(0-t),"[1]; human, plasma, po, 10 mg, Treatment A: 2 × 5 mg oral capsule, fasting, mean, read-out: AUClast",304 ng·h/mL
same,AUC(0-inf),"[1]; human, plasma, po, 10 mg, Treatment A: 2 × 5 mg oral capsule, fasting, mean, read-out: AUC∞",315 ng·h/mL
same,Cmax,"[1]; human, plasma, po, 10 mg, Treatment A: 2 × 5 mg oral capsule, fasting, mean, read-out: Cmax",31.2 ng/mL
same,Tmax,"[1]; human, plasma, po, 10 mg, Treatment A: 2 × 5 mg oral capsule, fasting",1.5 h
same,"Change from Treatment Baseline in HAM-A6 Total Score, Arithmetic Mean (SD)",subjects with MDD,−2.73 ± 2.651 scores on a scale
